Assay results reported in patent publication US8603497B2, “Composition for local anesthesia” (National University Corporation Okayama University, priority 2008, dated 2013).
Structures can show the parent of a compound that is named as a salt.

Key:
Hartley male guinea pigs [1] = assay: guinea pig wheal method (durability of local anesthetic action); conditions: for ED50 for adrenaline alone (local anesthesia enhancing action) / ED50 for dexmedetomidine hydrochloride alone (local anesthesia enhancing action): added alone to lidocaine hydrochloride; for ED50 for adrenaline alone (local anesthesia enhancing action): calculated from scores of Solutions 6 to 10; for theoretical ED50 value in combined use / ED50 value obtained in the experiment in combined use: combined use of adrenaline and dexmedetomidine; for theoretical ED50 value in combined use: isobologram, mean ±95% confidence interval in brackets; for ED50 value obtained in the experiment in combined use: significantly different from theoretical, P<0.05 (T-test); for ED50 for dexmedetomidine hydrochloride alone (local anesthesia enhancing action): calculated from scores of Solutions 1 to 5
Procedure: A guinea pig wheal method was employed. The hair on the back of Hartley male guinea pigs each having a body weight of 500 to 600 g was clipped. After that, 0.1 ml each of Solutions 1 to 5 blended as described above was injected intracutaneously, and the surroundings of wheals, which developed in the skin, were marked with a felt-tipped pen. Pricks were applied on six sites inside each wheal with a fixed-weight sensory needle. […] The pricks were applied every 5 minutes until 60 minutes, and the total of the number of times that an anesthetic effect was observed was used as a score to assess the durability of a local anesthetic action. A 50% effective dose (effective dose 50: ED50) for dexmedetomidine was calculated based on a score for each of Solutions 1 to 5.
Each score for Solutions 16 to 21 and Solutions 22 to 27 was calculated to assess a local anesthetic effect.
Each score for Solutions 28 to 31 was calculated to assess a local anesthetic effect.

Hartley male guinea pigs [2] = assay: peripheral blood flow by Doppler rheometer after intradermal injection; assay type: in vivo, guinea pig; conditions: 0.1 ml intradermal, every 5 minutes until 30 minutes, ratio to baseline; FIG. 2
Procedure: The hair of the back was clipped and then three sites around the center of the back were marked with a felt-tipped pen at sufficient intervals. A blood flow value was measured by attaching a Doppler rheometer (ALF21RD; ADVANCE CO., LTD., Tokyo) probe and was used as a baseline value (Time 0). […] 0.1 ml each of Solutions 32, 33, and 34 obtained by the blending was intradermally injected into the three sites and the Doppler rheometer probe was fixed on the same sites. A blood flow value was time-dependently measured at an interval of 5 minutes after the injection until 30 minutes. The ratio of the blood flow value to the baseline value (0 to 1.0) was expressed as a peripheral blood flow degree and a time-dependent change at each of the injection sites was determined.

SMILES | ED50 for adrenaline alone (local anesthesia enhancing action) (Hartley male guinea pigs [1]) [nM] | ED50 for adrenaline alone (local anesthesia enhancing action) (Hartley male guinea pigs [1]; listed as Adrenaline) [nM] | theoretical ED50 value in combined use (Hartley male guinea pigs [1]) [nM] | ED50 value obtained in the experiment in combined use (Hartley male guinea pigs [1]) [nM] | peripheral blood flow / peripheral vasoconstriction (Hartley male guinea pigs [2]) | ED50 for dexmedetomidine hydrochloride alone (local anesthesia enhancing action) (Hartley male guinea pigs [1]) [nM] | ED50 for dexmedetomidine hydrochloride alone (local anesthesia enhancing action) (Hartley male guinea pigs [1]; listed as Dexmedetomidine hydrochloride) [nM]
CNCC(O)c1ccc(O)c(O)c1 (stereo not drawn) [adrenaline] | 5910 | 5910 | 2960 | 788 |  |  | 
Cc1cccc([C@H](C)c2cnc[nH]2)c1C [dexmedetomidine hydrochloride, Dexmedetomidine hydrochloride] |  |  | 39.2 | 11.3 | tended to suppress the peripheral vasoconstriction action of adrenaline | 78.3 | 78.3
